Converted amounts (≈) assume the structure as drawn. Where two headings read alike, the source gives them in different places.
Columns and labels:
[1] = tested on: Staphylococcus epidermidis (ATCC 35984, also known as RP62A or MRSE); experiment: MIC determination on S. epidermidis (EUCAST, OD600 after overnight growth in MHB); assay type: cell-based
Experimental: The Minimal Inhibitory Concentration (MIC) of molecules 2329, 2348, 2412, 2452 and 2461 was determined on Staphylococcus epidermidis (ATCC 35984, also known as RP62A) according to EUCAST (European Committee on Antimicrobial Susceptibility Testing) recommendations.
Briefly, a single colony grown on a Tryptic Soy Agar (TSA) plate was resuspended and cultured in Tryptic Soy Broth (TSB) overnight (O/N) in aerobic conditions (37° C. with 220 rpm shaking), next day a 1:50 inoculum in Mueller-Hinton broth (MHB) was incubated in aerobic conditions for 3 hr and an inoculum of 1:100 dilution, corresponding to 3×10^5 CFU/ml, was incubated in presence or absence of different concentrations of the molecules in 1% DMSO (vehicle). After O/N growth the OD of each culture was measured at 600 nm in a spectrophotometer (OD600). The MIC represents the concentration at which there is no visible growth of bacteria, i.e. ΔOD at 600 nm equal to zero (blank is the medium alone).
The Minimal Inhibitory Concentration (MIC) of pyrazolopyrimidine molecules 2539, 2544, 2666,2676, 2693, 2783, 2784 and 2782 and of purine molecules 2498, 2511, 2525, 2527, 2833, and 2840 was determined on S. epidermidis (ATCC 35984, also known as RP62A or MRSE) according to EUCAST (European Committee on Antimicrobial Susceptibility Testing) recommendations.
Briefly, a single colony grown on an agar plate was resuspended and cultured in Triptic Soy Broth (TSB) medium overnight (O/N) in aerobic conditions (37° C. with 220 rpm shaking), next day a 1:50 inoculum in Mueller-Hinton broth (MHB) was incubated in aerobic conditions for 3 hr (OD=0.08-0.1) and an inoculum of 1:300 dilution, corresponding to 3×10^5 CFU/ml, was incubated in presence or absence of different concentrations of each of the molecules in 1% DMSO (vehicle). After O/N growth the OD of each culture was measured at 600 nm (600) in a spectrophotometer (Victor 3-Perkin Elmer). The MIC represents the concentration at which there is no visible growth of bacteria, i.e. ΔOD at 600 nm equal to zero (where ΔOD is the difference between the OD with the molecule and the OD of the blank, the medium alone).
Molecule 36z has been tested for its potential antibacterial activity by determining its minimal inhibitory concentration (MIC) according to protocols recommended by EUCAST to assess the efficacy of antibiotics against bacterial strains. In brief MIC in MRSA (ATCC BAA-1556) or in Xen29 (Perkin Elmer-ATCC 12600) for 36z (molecule 25 in WO2009/034386) was determined by culturing a single colony of MRSA or Xen29 in brain heart infusion (BHI) broth overnight (O/N) in aerobic conditions (37° C. with 220 rpm shaking), while MIC for MRSE (ATCC 35984) was determined by culturing MRSE in TSB O/N. Next day a 1:100 inoculum in Mueller-Hinton broth (MHB) is incubated in aerobic conditions for 3 hr (OD=0.08-0.1) and an inoculum of 1:300 dilution, corresponding to 3×10^5 CFU/ml, is incubated in presence or absence of different concentrations of the tested molecules in 1% DMSO. After O/N growth the OD of each culture was measured at 600 nm (OD600) in a spectrophotometer (Victor 3-Perkin Elmer). The MIC represents the concentration at which there is no visible growth of bacteria, i.e. ΔOD at 600 nm equal to zero (blank is the medium alone). No antibacterial activity was found against MRSA (ATCC BAA-1556), Xen29 (Perkin Elmer-ATCC 12600 or MRSE (ATCC 35984) strains when the molecule was used at concentrations up to 200 μM.

[2] = tested on: Staphylococcus aureus (Xen29-ATCC 12600) biofilm formation; experiment: S. aureus Xen29 biofilm formation (bioluminescence imaging, IVIS); assay type: cell-based; conditions: imaged every 60 min for 13 hours; for biofilm formation (photon signal per surface unit): 10 μM, vs vehicle DMSO 1%; for biofilm formation (photon signal per second, radiance): 20 μM, vs vehicle
Experimental: (§1) Bioluminescent S. aureus (Xen29, Perkin Elmer-(ATCC 12600)) is grown overnight in TSB medium, before being diluted 100 fold in fresh TSB, and incubated aerobically at 37° C. until bacteria culture reached an OD600 of 0.6 (corresponding to approximately 1-3×10^8 CFU/ml). Bacteria cultures are then diluted to 1×10^4 CFU/ml in fresh TSB. 600 μl aliquots of diluted bacteria suspensions are distributed in each well of a 48-well plate. Bacteria are allowed to adhere for 3 hours under static conditions at 37° C. After removing media, wells are rinsed 2 times with PBS to eliminate planktonic bacteria and re-filled with TSB supplemented with 0.5% glucose
(§2) […] Biofilm formation is imaged every 60 min, for 13 hours, using a IVIS camera system (Xenogen Corp.) Total photon emission from each well is then quantified using the Living Image software package (Xenogen Corp.).
as §1, with “suspensions were” for “suspensions are”
as §2
as §1, with “was” for “(Xen29, Perkin Elmer-(ATCC 12600)) is”, “O/N” for “overnight”, “were” for “are”, “TSB and aliquots of” for “TSB.”, “were” for “aliquots of diluted bacteria suspensions are”, “glucose. Molecules 2666 and 2511 were then added at 20 μM final concentration. Biofilm formation is imaged every 60 min, for 13 hours, using a IVIS camera system (Xenogen Corp.) Total photon emission from each well (photon/second:p/s) is then quantified using the Living Image software package (Xenogen Corp.).” for “glucose”

[3] = Staphylococcus epidermidis, Mueller-Hinton broth (MHB), read-out: MIC S. epidermidis RP62

Structure (SMILES) | MIC [1, 3] [µM] | biofilm formation (photon signal per surface unit) [2] | antibacterial activity / inhibition of MRSE growth (in words) ([1]; MHB medium) | MIC ([1]; MHB medium, tested up to 100 μM, read-out: MIC MRSE) [µM] | MIC ([1]; Staphylococcus epidermidis, MHB medium, tested up to 100 μM, read-out: MIC MRSE) [µM] | biofilm formation (photon signal per second, radiance) [2] | MIC ([1]; Staphylococcus epidermidis, read-out: MIC MRSE) [µM]
CCCSc1nc(N[C@@H]2C[C@H]2c2ccc(F)c(F)c2)c2ncn(C)c2n1 [Molecule 2329, N-((1R,2S)-2-(3,4-difluorophenyl)cyclopropyl)-9-methyl-2-(propylthio)-9H-purin-6-amine] | 20 (≈ 7.51 µg/mL) | fully prevented biofilm formation | – | – | – | – | –
CCCSc1nc(N[C@@H]2C[C@H]2c2ccc(F)c(F)c2)c2ncn(CC)c2n1 [Molecule 2348, N-((1R,2S)-2-(3,4-difluorophenyl)cyclopropyl)-9-ethyl-2-(propylthio)-9H-purin-6-amine] | 20 (≈ 7.79 µg/mL) | fully prevented biofilm formation | – | – | – | – | –
C=CCn1cnc2c(N[C@@H]3C[C@H]3c3ccc(F)c(F)c3)nc(SCCC)nc21 [Molecule 2412, 9-allyl-N-((1R,2S)-2-(3,4-difluorophenyl)cyclopropyl)-2-(propylthio)-9H-purin-6-amine] | > 50 | delay biofilm formation | – | – | – | – | –
C#CCn1cnc2c(N[C@@H]3C[C@H]3c3ccc(F)c(F)c3)nc(SCCC)nc21 [Molecule 2452, N-((1R,2S)-2-(3,4-difluorophenyl)cyclopropyl)-9-(prop-2-yn-1-yl)-2-(propylthio)-9H-purin-6-amine] | > 50 | delay biofilm formation | – | – | – | – | –
CCn1cnc2c(N[C@@H]3C[C@H]3c3ccc(F)c(F)c3)nc(SC)nc21 [Molecule 2511, N-((1R,2S)-2-(3,4-difluorophenyl)cyclopropyl)-9-ethyl-2-(methylthio)-9H-purin-6-amine] | – | – | able to inhibit MRSE growth | >100 | > 100 | inhibited biofilm growth | –
CCSc1nc(N[C@@H]2C[C@H]2c2ccc(F)c(F)c2)c2cnn(C)c2n1.Cl [Molecule 2666, N-((1R,2S)-2-(3,4-difluorophenyl)cyclopropyl)-6-(ethylthio)-1-methyl-1H-pyrazolo[3,4-d]pyrimidin-4-amine hydrochloride] | – | – | able to inhibit MRSE growth | – | – | inhibited biofilm growth | 50

Source: patent US11434241B2, “Pyrimidine derivatives for prevention and treatment of bacterial infections” (UNIVERSITE DE LIEGE, priority 2018, dated 2022)
